Results published in patent US10040781B2, “Tank-binding kinase inhibitor compounds” (Gilead Sciences, Inc., priority 2014, dated 2018).

Assays:
hJAK2 = hJAK2 (Homo sapiens (Human), UniProt O60674); assay: hJAK2 LANCE TR-FRET enzymatic assay; assay type: biochemical; details: read-out: JAK2 IC50
IKKε = IKKε (Homo sapiens (Human), UniProt Q14164); assay: IKKε TR-FRET enzymatic assay; assay type: biochemical; details: read-out: IKKe IC50
TBK1 = TBK1 (Homo sapiens (Human), UniProt Q9UHD2); assay: TBK1 TR-FRET enzymatic assay;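 further: phosphorylation of a biotinylated Ser/Thr peptide by purified full-length recombinant TBK1, read by TR-FRET after 240 min at 25 °C, IC50 is the geometric mean of at least four runs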
Sequence of TBK1 (Q9UHD2 whole entry): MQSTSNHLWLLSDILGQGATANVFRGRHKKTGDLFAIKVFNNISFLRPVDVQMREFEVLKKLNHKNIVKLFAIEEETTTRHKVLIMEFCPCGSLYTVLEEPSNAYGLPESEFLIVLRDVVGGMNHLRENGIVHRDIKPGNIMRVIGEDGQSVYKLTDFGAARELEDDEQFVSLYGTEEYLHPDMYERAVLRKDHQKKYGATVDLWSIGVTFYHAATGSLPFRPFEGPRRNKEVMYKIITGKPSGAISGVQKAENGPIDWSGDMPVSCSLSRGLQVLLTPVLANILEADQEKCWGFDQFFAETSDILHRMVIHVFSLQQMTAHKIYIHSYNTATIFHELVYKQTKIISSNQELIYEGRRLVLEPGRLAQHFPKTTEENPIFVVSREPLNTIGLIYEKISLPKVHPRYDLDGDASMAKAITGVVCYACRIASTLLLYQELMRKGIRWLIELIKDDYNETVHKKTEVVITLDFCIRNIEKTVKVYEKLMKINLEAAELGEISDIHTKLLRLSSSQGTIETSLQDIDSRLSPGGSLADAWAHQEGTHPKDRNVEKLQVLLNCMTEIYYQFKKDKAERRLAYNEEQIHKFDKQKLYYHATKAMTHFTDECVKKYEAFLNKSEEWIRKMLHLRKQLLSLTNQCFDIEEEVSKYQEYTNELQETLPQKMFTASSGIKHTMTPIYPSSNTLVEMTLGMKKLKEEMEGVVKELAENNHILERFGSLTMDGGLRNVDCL

Sequence of IKKε (Q14164 whole entry): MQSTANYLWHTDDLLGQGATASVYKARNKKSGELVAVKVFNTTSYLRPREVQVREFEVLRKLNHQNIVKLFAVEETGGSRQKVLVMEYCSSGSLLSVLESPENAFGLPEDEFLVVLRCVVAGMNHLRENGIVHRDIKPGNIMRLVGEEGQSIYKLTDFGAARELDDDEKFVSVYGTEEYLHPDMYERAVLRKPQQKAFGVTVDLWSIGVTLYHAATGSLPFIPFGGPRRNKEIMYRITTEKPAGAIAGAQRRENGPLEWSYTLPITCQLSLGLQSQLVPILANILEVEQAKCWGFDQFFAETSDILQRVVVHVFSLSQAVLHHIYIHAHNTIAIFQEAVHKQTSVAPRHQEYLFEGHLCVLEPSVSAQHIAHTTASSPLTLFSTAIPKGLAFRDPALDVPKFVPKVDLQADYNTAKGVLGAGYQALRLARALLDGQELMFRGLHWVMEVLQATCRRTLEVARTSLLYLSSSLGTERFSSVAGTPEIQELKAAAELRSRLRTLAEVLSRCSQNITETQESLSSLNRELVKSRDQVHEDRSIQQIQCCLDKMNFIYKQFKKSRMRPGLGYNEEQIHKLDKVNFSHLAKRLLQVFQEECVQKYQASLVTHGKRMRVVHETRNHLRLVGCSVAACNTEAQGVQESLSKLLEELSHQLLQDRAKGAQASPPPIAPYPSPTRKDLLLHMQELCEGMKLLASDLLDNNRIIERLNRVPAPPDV
Sequence of hJAK2 (O60674 whole entry): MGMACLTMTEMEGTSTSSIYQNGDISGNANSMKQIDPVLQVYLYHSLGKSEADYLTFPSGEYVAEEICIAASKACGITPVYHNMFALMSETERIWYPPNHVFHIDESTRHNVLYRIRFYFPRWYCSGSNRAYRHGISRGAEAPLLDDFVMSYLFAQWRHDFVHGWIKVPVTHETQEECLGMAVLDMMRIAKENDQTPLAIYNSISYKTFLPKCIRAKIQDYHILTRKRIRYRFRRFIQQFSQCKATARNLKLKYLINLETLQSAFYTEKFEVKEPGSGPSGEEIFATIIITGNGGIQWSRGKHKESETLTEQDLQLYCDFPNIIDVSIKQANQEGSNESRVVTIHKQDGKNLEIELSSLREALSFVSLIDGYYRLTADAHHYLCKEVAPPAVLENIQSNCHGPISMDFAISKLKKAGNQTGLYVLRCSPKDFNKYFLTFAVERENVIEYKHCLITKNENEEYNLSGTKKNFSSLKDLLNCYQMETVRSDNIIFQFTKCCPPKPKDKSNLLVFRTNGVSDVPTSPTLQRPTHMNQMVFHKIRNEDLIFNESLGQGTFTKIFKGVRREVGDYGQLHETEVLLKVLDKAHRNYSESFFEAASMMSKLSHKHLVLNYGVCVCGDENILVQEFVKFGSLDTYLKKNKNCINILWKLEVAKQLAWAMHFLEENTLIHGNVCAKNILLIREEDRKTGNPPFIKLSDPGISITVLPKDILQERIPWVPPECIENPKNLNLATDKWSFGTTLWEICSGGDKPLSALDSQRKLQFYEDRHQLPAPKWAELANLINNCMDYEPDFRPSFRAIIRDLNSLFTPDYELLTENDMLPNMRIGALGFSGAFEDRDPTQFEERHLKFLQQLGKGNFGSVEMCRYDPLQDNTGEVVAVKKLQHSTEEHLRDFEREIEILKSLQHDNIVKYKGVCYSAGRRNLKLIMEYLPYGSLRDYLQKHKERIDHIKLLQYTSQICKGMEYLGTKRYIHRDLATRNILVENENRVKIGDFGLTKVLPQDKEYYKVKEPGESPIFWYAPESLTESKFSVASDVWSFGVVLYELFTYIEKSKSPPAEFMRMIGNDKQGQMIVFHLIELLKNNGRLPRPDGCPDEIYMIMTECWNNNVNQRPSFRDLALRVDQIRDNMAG

Row | IC50 (hJAK2) [nM] | IC50 (IKKε) [nM] | IC50 (TBK1) [nM] | Structure (SMILES)
1 | 128 | 1 | 2 | N#Cc1cc(-c2ncnc(Nc3ccc(N4CCO[C@H](CO)C4)cc3)n2)ccc1O[C@H]1CCN(C(=O)CO)C[C@H]1F [Example 232, 2-(((3R,4S)-3-fluoro-1-(2-hydroxyacetyl)piperidin-4-yl)oxy)-5-(4-((4-((S)-2-(hydroxymethyl)morpholino)phenyl)amino)-1,3,5-triazin-2-yl)benzonitrile]
2 | 333 | 1 | 2 | C[C@H](O)C(=O)N1CC[C@H](Oc2ccc(-c3ncnc(Nc4ccc(N5CCO[C@H](CO)C5)cc4)n3)cc2C#N)[C@H](F)C1 [Example 233, 2-(((3R,4S)-3-fluoro-1-((S)-2-hydroxypropanoyl)piperidin-4-yl)oxy)-5-(4-((4-((S)-2-(hydroxymethyl)morpholino)phenyl)amino)-1,3,5-triazin-2-yl)benzonitrile]
3 | 723 | 233 | 58 | N#Cc1cc(-c2ncnc(Nc3ccc(N4CCN(C5COC5)CC4)cc3)n2)ccc1O[C@@H]1CCNC[C@H]1F [Example 236, 2-(((3R,4R)-3-fluoropiperidin-4-yl)oxy)-5-(4-((4-(4-(oxetan-3-yl)piperazin-1-yl)phenyl)amino)-1,3,5-triazin-2-yl)benzonitrile]
4 | 409 | 59 | 8 | N#Cc1cc(-c2ncnc(Nc3ccc(N4CCN(C5COC5)CC4)cc3)n2)ccc1O[C@H]1CCNC[C@H]1F [Example 239, 2-(((3R,4S)-3-fluoropiperidin-4-yl)oxy)-5-(4-((4-(4-(oxetan-3-yl)piperazin-1-yl)phenyl)amino)-1,3,5-triazin-2-yl)benzonitrile]
5 | 199 | 1 | 1 | N#Cc1cc(-c2ncnc(Nc3ccc(N4CCN(C5COC5)CC4)c(F)c3)n2)ccc1O[C@H]1CCN(C(=O)CO)C[C@H]1F [Example 240, 2-(((3R,4S)-3-fluoro-1-(2-hydroxyacetyl)piperidin-4-yl)oxy)-5-(4-((3-fluoro-4-(4-(oxetan-3-yl)piperazin-1-yl)phenyl)amino)-1,3,5-triazin-2-yl)benzonitrile]
6 | 249 | 1 | 2 | C[C@@H]1CN(C2COC2)CCN1c1ccc(Nc2ncnc(-c3ccc(O[C@H]4CCN(C(=O)CO)C[C@H]4F)c(C#N)c3)n2)cc1 [Example 242, 2-(((3R,4S)-3-fluoro-1-(2-hydroxyacetyl)piperidin-4-yl)oxy)-5-(4-((4-((R)-2-methyl-4-(oxetan-3-yl)piperazin-1-yl)phenyl)amino)-1,3,5-triazin-2-yl)benzonitrile]
7 | 191 | 1 | 3 | C[C@H]1CN(C2COC2)CCN1c1ccc(Nc2ncnc(-c3ccc(O[C@H]4CCN(C(=O)CO)C[C@H]4F)c(C#N)c3)n2)cc1 [Example 244, 2-(((3R,4S)-3-fluoro-1-(2-hydroxyacetyl)piperidin-4-yl)oxy)-5-(4-((4-((S)-2-methyl-4-(oxetan-3-yl)piperazin-1-yl)phenyl)amino)-1,3,5-triazin-2-yl)benzonitrile]
8 | 181 | 1 | 2 | C[C@H](O)C(=O)N1CC[C@H](Oc2ccc(-c3ncnc(Nc4ccc(N5CCN(C6COC6)[C@H](C)C5)cc4)n3)cc2C#N)C(F)(F)C1 [Example 246, 2-(((S)-3,3-difluoro-1-((S)-2-hydroxypropanoyl)piperidin-4-yl)oxy)-5-(4-((4-((R)-3-methyl-4-(oxetan-3-yl)piperazin-1-yl)phenyl)amino)-1,3,5-triazin-2-yl)benzonitrile]
9 | 333 | 397 | 233 | C[C@@H]1CN(c2ccc(Nc3ncnc(-c4ccc(O[C@@H]5CCN(C(=O)[C@@H](C)O)CC5(F)F)c(C#N)c4)n3)cc2)CCN1C1COC1 [Example 247, 2-(((R)-3,3-difluoro-1-((R)-2-hydroxypropanoyl)piperidin-4-yl)oxy)-5-(4-((4-((R)-3-methyl-4-(oxetan-3-yl)piperazin-1-yl)phenyl)amino)-1,3,5-triazin-2-yl)benzonitrile]
10 | 187 | 3 | 3 | C[C@@H]1CN(c2ccc(Nc3ncnc(-c4ccc(O[C@H]5CCN(C(=O)[C@@H](C)O)CC5(F)F)c(C#N)c4)n3)cc2)CCN1C1COC1 [Example 248, 2-(((S)-3,3-difluoro-1-((R)-2-hydroxypropanoyl)piperidin-4-yl)oxy)-5-(4-((4-((R)-3-methyl-4-(oxetan-3-yl)piperazin-1-yl)phenyl)amino)-1,3,5-triazin-2-yl)benzonitrile]
11 | 389 | 2 | 3 | C[C@H](O)C(=O)N1CC[C@H](Oc2ccc(-c3ncnc(Nc4ccc(N5CCN(C6COC6)C[C@@H]5C)cc4)n3)cc2C#N)[C@H](F)C1 [Example 249, 2-(((3R,4S)-3-fluoro-1-((S)-2-hydroxypropanoyl)piperidin-4-yl)oxy)-5-(4-((4-((S)-2-methyl-4-(oxetan-3-yl)piperazin-1-yl)phenyl)amino)-1,3,5-triazin-2-yl)benzonitrile]
12 | 127 | 5 | 3 | C[C@H]1CN(C2COC2)CCN1c1ccc(Nc2ncnc(-c3ccc(O[C@H]4CCN(C(=O)CC#N)C[C@H]4F)c(C#N)c3)n2)cc1 [Example 250, 2-(((3R,4S)-1-(2-cyanoacetyl)-3-fluoropiperidin-4-yl)oxy)-5-(4-((4-((S)-2-methyl-4-(oxetan-3-yl)piperazin-1-yl)phenyl)amino)-1,3,5-triazin-2-yl)benzonitrile]
13 | 369 | 14 | 5 | C[C@H]1CN(C2COC2)CCN1c1ccc(Nc2ncnc(-c3ccc(O[C@H]4CCN(C(=O)CCO)C[C@H]4F)c(C#N)c3)n2)cc1 [Example 251, 2-(((3R,4S)-3-fluoro-1-(3-hydroxypropanoyl)piperidin-4-yl)oxy)-5-(4-((4-((S)-2-methyl-4-(oxetan-3-yl)piperazin-1-yl)phenyl)amino)-1,3,5-triazin-2-yl)benzonitrile]
14 | 213 | 1 | 3 | C[C@H](O)C(=O)N1CC[C@H](Oc2ccc(-c3ncnc(Nc4ccc(N5CCN(C6COC6)C[C@@H]5C)cc4)n3)cc2C#N)C(F)(F)C1 [Example 252, 2-(((S)-3,3-difluoro-1-((S)-2-hydroxypropanoyl)piperidin-4-yl)oxy)-5-(4-((4-((S)-2-methyl-4-(oxetan-3-yl)piperazin-1-yl)phenyl)amino)-1,3,5-triazin-2-yl)benzonitrile]
15 | 61 | 2 | 3 | C[C@H]1CN(C2COC2)CCN1c1ccc(Nc2ncnc(-c3ccc(O[C@H]4CCN(C(=O)CC#N)CC4(F)F)c(C#N)c3)n2)cc1 [Example 253, 2-(((S)-1-(2-cyanoacetyl)-3,3-difluoropiperidin-4-yl)oxy)-5-(4-((4-((S)-2-methyl-4-(oxetan-3-yl)piperazin-1-yl)phenyl)amino)-1,3,5-triazin-2-yl)benzonitrile]
16 | 151 | 5 | 3 | C[C@H]1CN(C2COC2)CCN1c1ccc(Nc2ncnc(-c3ccc(O[C@H]4CCN(C(=O)CCO)CC4(F)F)c(C#N)c3)n2)cc1 [Example 254, 2-(((S)-3,3-difluoro-1-(3-hydroxypropanoyl)piperidin-4-yl)oxy)-5-(4-((4-((S)-2-methyl-4-(oxetan-3-yl)piperazin-1-yl)phenyl)amino)-1,3,5-triazin-2-yl)benzonitrile]
17 | 227 | 2 | 4 | C[C@H]1CN(C2COC2)CCN1c1ccc(Nc2ncnc(-c3ccc(O[C@H]4CCN(C(=O)c5cnn[nH]5)C[C@H]4F)c(C#N)c3)n2)cc1 [Example 255, 2-(((3R,4S)-3-fluoro-1-(1H-1,2,3-triazole-5-carbonyl)piperidin-4-yl)oxy)-5-(4-((4-((S)-2-methyl-4-(oxetan-3-yl)piperazin-1-yl)phenyl)amino)-1,3,5-triazin-2-yl)benzonitrile]
18 | 144 | 1 | 3 | C[C@H]1CN(C2COC2)CCN1c1ccc(Nc2ncnc(-c3ccc(O[C@H]4CCN(C(=O)c5cnc[nH]5)C[C@H]4F)c(C#N)c3)n2)cc1 [Example 256, 2-(((3R,4S)-3-fluoro-1-(1H-imidazole-5-carbonyl)piperidin-4-yl)oxy)-5-(4-((4-((S)-2-methyl-4-(oxetan-3-yl)piperazin-1-yl)phenyl)amino)-1,3,5-triazin-2-yl)benzonitrile]
19 | 270 | 1 | 2 | C[C@H]1CN(C2COC2)CCN1c1ccc(Nc2ncnc(-c3ccc(O[C@H]4CCN(C(=O)c5ccn[nH]5)C[C@H]4F)c(C#N)c3)n2)cc1 [Example 257, 2-(((3R,4S)-3-fluoro-1-(1H-pyrazole-5-carbonyl)piperidin-4-yl)oxy)-5-(4-((4-((S)-2-methyl-4-(oxetan-3-yl)piperazin-1-yl)phenyl)amino)-1,3,5-triazin-2-yl)benzonitrile]
20 | 66 | 1 | 3 | C[C@H]1CN(C2COC2)CCN1c1ccc(Nc2ncnc(-c3ccc(O[C@H]4CCN(C(=O)c5cnc[nH]5)CC4(F)F)c(C#N)c3)n2)cc1 [Example 259, 2-(((S)-3,3-difluoro-1-(1H-imidazole-5-carbonyl)piperidin-4-yl)oxy)-5-(4-((4-((S)-2-methyl-4-(oxetan-3-yl)piperazin-1-yl)phenyl)amino)-1,3,5-triazin-2-yl)benzonitrile]
21 | 156 | 1 | 2 | C[C@H](O)C(=O)N1CC[C@H](Oc2ccc(-c3ncnc(Nc4ccc(N5CCN(C6COC6)[C@@H](C)C5)cc4)n3)cc2C#N)C(F)(F)C1 [Example 262, 2-(((S)-3,3-difluoro-1-((S)-2-hydroxypropanoyl)piperidin-4-yl)oxy)-5-(4-((4-((S)-3-methyl-4-(oxetan-3-yl)piperazin-1-yl)phenyl)amino)-1,3,5-triazin-2-yl)benzonitrile]
